Experiments:
[1] = target: T1, Cdk5 and p25 (Homo sapiens, UniProt Q00535); experiment: Cdk5 kinase inhibitory activity, SPA method with biotinylated histone and 33P-ATP; format: biochemical; conditions: recombinant human Cdk5/p25 1:1, SPA method
T1 construct: Complete length of the human Cdk5 gene was amplified from total RNA; made in house; host or cells: Sf9 insect cells (baculovirus)
Experimental: The total RNA was obtained by adding 1 ml of ISOGEN reagent (Nippon Gene) to 1×10^6 cells, mixing the resulting lysate with ⅕ volume of chloroform, centrifuging the mixture at 15,000 rpm for 10 minutes, mixing the resulting supernatant with ½ volume of 2-propanol and further centrifuging the mixture at 15,000 rpm for 20 minutes. The thus obtained RNA was dissolved in water and, after measurement of its concentration, subjected to PCR reaction (Titans one tube RT-PCR kit (Boehringer Mannheim)). […] Each of the genes was introduced into a Bacmid preparation vector pFASTBac-Hta (Gibco BRL) which had been designed such that His-tag is added to N-terminus, making use of the HindIII and BamHI sites designed in the primers. Each of the genes introduced into pFASTBac was introduced into DH10Bac to carry out recombination in E. coli, thereby obtaining respective recombinant Bacmids. The thus obtained Bacmid was introduced into Sf9 cells using cellfectin reagent (Gibco BRL) to obtain baculovirus. […] Purification of the recombinant proteins was carried out making use of the 6× His tag added to the N-terminus.
After though washing with the buffer A, this was washed with a buffer B (20 mM Tris-HCl, 1 M KCl, 10 mM 2-ME, 10% glycerol). Finally, fractions eluted with a buffer C (20 mM Tris-HCl, 100 mM KCl, 100 mM imidazole, 10 mM 2-ME, 10% glycerol) were recovered, dialyzed against a sample solution (50 mM HEPES-KOH, 10 mM MgCl2, 2.5 mM EGTA, 0.1 mM PMSF) and used as a purified preparation.
A 1:1 mixture of the purified Cdk5 protein and purified p25 obtained above was used as the enzyme source at the time of kinase activity measurement. Histone HI (Sigma) was biotinylated and used as the substrate. Biotinylated histone was prepared by allowing histone to react with 10 equivalents of biotin (Ez-link Sulfo-NHS-LC-Biotin, Pierce) as molar ratio in the presence of 50 mM sodium bicarbonate at room temperature for 6 hours. Free biotin was removed by carrying out dialysis using TBS, and the resulting solution was used as the stock solution. Measurement of kinase activity was carried out in accordance with the SPA method (Amersham). […] This was allowed to stand at room temperature for 15 minutes and centrifuged (1,700 rpm, 2 min), and then amount of the isotope incorporated in the substrate was measured by Topcount […].

[2] = tested on: APP(Thr668) phosphorylation; experiment: APP(Thr668) phosphorylation by western blotting in APP695 adenovirus-infected hippocampus primary culture nerve cells; format: cell-based, rat; conditions: for APP phosphorylation suppressing action / concentration at which APP phosphorylation suppressing action was found: rat hippocampus primary culture nerve cells, human APP695 adenovirus, 1 day of treatment; for expressed amount of total APP detected with anti-APP antibody 22C11: same cells and treatment, Alsterpaullone 10 μM, Roscovitine 50 μM
Experimental: The APP gene-containing recombinant adenovirus vector was converted into linear strand by PacI treatment and introduced into HEK293 cells by the Lipofectamine method (LIFE TECHNOLOGIES), and 3 to 5 days thereafter when cells were pealed off from the plate, all of the cells were recovered. The recombinant adenovirus was obtained from the supernatant by repeating freezing-thawing step of the cells. The thus obtained recombinant adenovirus was prepared in a large amount by repeating infection of HEK293 cells and then concentrated and purified by the CsCl method and used in the test.
The thus obtained PVDF membrane was soaked in Block Ace (Daiichi Pure Chemicals) at 4° C. overnight to carry out blocking. […] The anti-serum obtained by the immunization was used by subjecting to adsorption treatment using an immunogen peptide before introduction of phosphate group and then purifying by affinity chromatography using the phosphate group-introduced antigen peptide. Also, an anti-APP monoclonal antibody 22C11 (Roche Molecular Biochemicals) was used in the determination of total APP amount (combined APP amount of phosphorylated state of APP and non-phosphorylated state of APP). […] After completion of the reaction, washing with PBS-T at room temperature for 10 minutes was repeated four times and then this was subjected to the reaction with a secondary antibody. As the secondary antibody, 20,000 times diluted HRP-labeled anti-rabbit and anti-mouse IgG antibodies (Amersham Pharmacia Biotech) were used.

[3] = tested on: Aβ1-40 production; experiment: Aβ1-40 production, sandwich ELISA of culture supernatant of APP695 adenovirus-infected hippocampus primary culture nerve cells
Experimental: The fetus was sterilized with ethanol for disinfection in a clean bench, the total brain was extracted and recovered in a dish containing a serum-free medium (SUMILON, Sumitomo Bakelite), and the hippocampus was extracted using a precision pincette under a stereoscopic microscope. The hippocampus was transferred into a 50 ml tube, tissues were precipitated by standing to discard the supernatant by aspirating and a cell dispersing solution (PBS containing 1% papain, 150 U/ml DNase I, 0.02% L-cysteine, 0.02% BSA and 0.5% glucose) was added thereto, and the mixture was incubated at 37° C. for 15 minutes and then centrifuged (1,000 rpm, 4° C., 5 min). The supernatant was removed by aspiration, 10 ml of the serum-free medium was added to the sediment, pipette treatment was carried out several times, and then cell masses were removed using a filter to obtain a cell suspension. The number of cells was counted using trypan blue, and 1.5×10^5 of the cells were inoculated into a poly-L-lysine-coated 48 well culture plate. In order to effect sufficient differentiation, they were cultured at 37° C. for 10 days in a CO2 incubator and then used in the test.
Infection with adenovirus was carried out on the 10th day of the culturing. A virus suspension of 1.5×10^8 particles was suitably diluted and added to a medium to an MOI (multiplicity of infection) value of 1,000 based on 1.5×10^5 cells. A sample was recovered on the 4th day of the infection.
Culture supernatants recovered 24 hours after the addition of compounds to be tested were used as the samples for Aβ production measurement. Amount of Aβ in each supernatant was determined by sandwich ELISA. Firstly, an anti-Aβ monoclonal antibody 6E10 (Wako) diluted to 10 μg/ml with 100 mM phosphate buffer was dispensed in 50 μl/well portions into a plate for ELISA (Maxisorp, Nunc) and allowed to stand overnight at 4° C. to effect adhesion of the 6E10 antibody to the plate. The antibody was recovered on the next day, and 200 μl of Block Ace was added to each well to carry out blocking at 4° C. overnight or more. […] The Aβ for calibration curve preparation was prepared in the following manner. […] A 10 μl portion of the stock solution was transferred into a tube, HFIP was evaporated using a vacuum concentrator and then the residue was again dissolved in 10 μl of DMSO to an Aβ concentration of 1 mg/ml. Serial dilutions of the solution for Aβ calibration curve measurement were prepared within the range of from 0.2 to 10 ng/ml. The plate after the reaction with a sample or Aβ for calibration curve preparation was washed 4 times with the plate washer and then allowed to react with primary antibodies. Polyclonal antibodies R163 (Aβ1-40 specific antibody) and R165 Aβ1-42 specific antibody), which specifically recognize C-terminus of Aβ, were used as the primary antibodies. […] Each antibody was diluted 1,000 times with TBS-T containing 25% Block Ace, dispensed in 60 μl/well portions into the plate and then allowed to undergo the reaction at room temperature for 2 hours. After the reaction, the plate was washed 4 times using the plate washer and then the reaction with a secondary antibody was carried out. An HRP-labeled anti-rabbit IgG antibody was used as the secondary antibody, diluted 8,000 times with TBS-T containing 25% Block Ace and dispensed in 60 μl/well portions, and then the reaction was carried out at room temperature for 2 hours. After completion of the reaction, the plate was washed 4 times using the plate washer and then chemiluminescence by a POD chemiluminescence reagent (Boehringer Mannheim) was measured by ML3000 Plate Reader (Dynatech Laboratories).

[4] = tested on: Aβ1-42 production; experiment: Aβ1-42 production, sandwich ELISA of culture supernatant of APP695 adenovirus-infected hippocampus primary culture nerve cells; format: cell-based, rat; conditions: culture supernatant after 1 day of treatment, control DMSO (FIG. 4)
[5] = culture supernatant after 1 day of treatment, control DMSO (FIG. 3, FIG. 5)

T1 sequence (Q00535 2-292): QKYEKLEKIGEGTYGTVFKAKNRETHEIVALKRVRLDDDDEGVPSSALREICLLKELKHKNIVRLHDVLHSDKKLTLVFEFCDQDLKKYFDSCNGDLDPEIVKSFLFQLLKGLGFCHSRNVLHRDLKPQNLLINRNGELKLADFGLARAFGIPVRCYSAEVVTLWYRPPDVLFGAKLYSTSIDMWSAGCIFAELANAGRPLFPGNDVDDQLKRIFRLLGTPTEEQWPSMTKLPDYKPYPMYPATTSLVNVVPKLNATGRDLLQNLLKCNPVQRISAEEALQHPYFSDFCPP
T1 sequence (Q15078 99-307 partner limits assumed): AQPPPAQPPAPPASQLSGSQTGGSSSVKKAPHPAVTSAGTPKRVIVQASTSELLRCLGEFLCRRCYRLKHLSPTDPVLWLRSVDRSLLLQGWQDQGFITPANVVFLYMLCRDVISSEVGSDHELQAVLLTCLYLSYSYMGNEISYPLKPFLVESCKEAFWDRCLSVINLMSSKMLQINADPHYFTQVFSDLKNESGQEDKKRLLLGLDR

Compound | Cdk5 inhibitory activity [1] | APP phosphorylation suppressing action [2] | Aβ1-40 production [3, 5] | concentration at which APP phosphorylation suppressing action was found [2] | expressed amount of total APP detected with anti-APP antibody 22C11 [2] | Aβ1-42 production [4] | Aβ1-40 production ([3]; cells on 7th day co-infected with APP695 adenovirus and Cdk5 D144N adenovirus, supernatant 2 days later, control GFP adenovirus)
CCn1cnc2c(Nc3cccc(OC)c3)nc(N[C@@H]3CCCC[C@@H]3N)nc21 [A] | verified the Cdk5 inhibitory activity | found | confirmed |  |  |  | 
O=C1Cc2c([nH]c3ccc([N+](=O)[O-])cc23)-c2ccccc2N1 [Alsterpaullone, reference compound] | verified the Cdk5 inhibitory activity |  | suppressed | 10 µM | no changes | suppressed | 
CCn1cnc2c(Nc3cccc(OC)c3)nc(NC3CCC(N)CC3)nc21 (stereo not drawn) [B] | verified the Cdk5 inhibitory activity | found | confirmed |  |  |  | 
CCn1cnc2c(Nc3cccc(OC)c3)nc(N[C@H]3CC[C@H](O)CC3)nc21 [C] | verified the Cdk5 inhibitory activity | found | confirmed |  |  |  | 
N[C@H]1CC[C@H](Nc2nc(Nc3cccc(Cl)c3)c3ncn(C4CCCC4)c3n2)CC1 [D] | verified the Cdk5 inhibitory activity | found | confirmed |  |  |  | 
CC[C@H](CO)Nc1nc(NCc2ccccc2)c2ncn(C(C)C)c2n1 [Roscovitine, reference compound] |  |  | confirmed | 50 µM | no changes |  | 
Cdk5 D144N: dominant negative mutant of Cdk5 (144th aspartic acid converted into asparagine), expressed from adenovirus vector |  |  |  |  |  |  | suppressed

From US20030100477A1, “Medicinal compositions for suppressing beta-amyloid production” (priority 2002, published 2003)
